Data from article PMC8359193, “Summary of reference chemicals evaluated by the fish short‐term reproduction assay, OECD TG229, using Japanese Medaka, Oryzias latipes” (Journal of Applied Toxicology, 2021).
Where a name gives a salt, the structure may show the parent alone.

Test system: Japanese medaka (Oryzias latipes)
Assay: Fish short-term reproduction assay (FSTRA, OECD TG229), 21-day flow-through exposure
Details: for Fertility rate (%) / Mortality (%) Female / Mortality (%) Male / Number of fertilized eggs / Number of total eggs / SSC Female / SSC Male / VTG (ng/mg of liver) Female / VTG (ng/mg of liver) Male: 21 days; for GSI Female / GSI Male / HSI Female / HSI Male / Length Female / Length Male / Weight Female / Weight Male: at completion of exposure
Method: The experimental studies on the FSTRA for the 16 chemicals were conducted in two laboratories in Japan, the National Institute for Environmental Studies (NIES, Lab‐1) and the Institute of Environmental Ecology, IDEA Consultants Inc. (Lab‐2), in accordance with OECD TG229 (OECD, [2012a]) (Table 1).
The NIES‐R strain of Japanese medaka (O. latipes), one of the orange‐red varieties, was used in all the 16 chemical studies. For the studies, healthy and mature male and female medakas at 16 ± 2 weeks old were selected from a single‐stock population, which were bred within the test facilities. The test fish were maintained in conditions similar to the assay for at least 7 days, and spawning status was checked during the acclimation period. On the day the chemical exposure commenced, to ensure balanced distribution of test fish between the treatment groups for the reproductive status of the fish, the replicate vessels (fish tanks), with each containing three male and female medaka, were distributed to each treatment and control group, for example, by a randomized block design based on the number of fertilized eggs laid in the last 5–7 days during the acclimation, in each assay.
The water solubility of the test chemical was also taken into consideration when deciding the highest test concentration. To set the lower concentrations, a spacing factor ranging between two and five was used. All assays included a dilution water control (DWC).
Test solutions at the selected concentrations were prepared by diluting a stock solution, which was prepared by an adequate method depending on the physicochemical properties of the test chemicals, for example, by simply mixing the test chemical in dilution water by stirring and/or sonicating for an appropriate time or by using a solid–liquid saturator. In the two laboratories, flow‐through exposure systems, in which a series of test solutions at the target concentrations can be continuously prepared and delivered to test vessels at controlled flow rates (Haselman et al., [2016]; Watanabe et al., [2017]), were used for the exposure experiments.
In the FSTRA, three mature adult males and females in a test vessel were exposed together to the test chemicals in flow‐through condition for 3 weeks. In all the assays, each treatment group, including the DWC group, contained four replicate tanks. During the exposure period, the fish were fed a sufficient amount of live brine shrimp nauplii (newly hatched Artemia sp.) for daily spawning ad libitum. Fecal material in the tanks was appropriately removed by siphoning after feeding. Water temperature of test solutions was recorded for at least one vessel in each treatment and control group every day and for all vessels at least once a week. Furthermore, dissolved oxygen and pH of test solutions were measured for all test vessels at least once a week. Mortality and abnormal behavior and appearance in the fish exposed to test chemicals were daily observed, and any fish that died were removed from the tank as soon as possible. To assess the reproductive status, all eggs females spawned were collected every day. At the completion of the chemical exposure, surviving fish in each tank were sampled.
The eggs females released on the bottom of the tank were collected by siphoning, and the egg clutches still on female abdomen were carefully picked from the body of the females captured using a small net. All the eggs collected were microscopically observed and separately counted for fertilized and unfertilized.

C[C@]12CCC(=O)C[C@@H]1CC[C@@H]1[C@@H]2CC[C@]2(C)[C@@H](O)CC[C@@H]12 [DHT, 5α‐Dihydrotestosterone]
effect on male SSC, in words (21-day exposure): statistical significance | LOEC on female SSC (papillary process formation on anal fin) (21-day exposure, measured conc.): 1.03 µg/L | Fertility rate (%) (measured conc. 0.063 μg/L): 94% | Mortality (%) Female (measured conc. 0.063 μg/L): 0% | Mortality (%) Male (measured conc. 0.063 μg/L): 0% | Number of fertilized eggs (measured conc. 0.063 μg/L): 17 | Number of total eggs (measured conc. 0.063 μg/L): 18 ± 5.6 /female/day | SSC Female (measured conc. 0.063 μg/L): 0 ± 0 | SSC Male (measured conc. 0.063 μg/L): 72 ± 12 | VTG (ng/mg of liver) Female (measured conc. 0.063 μg/L): 617 ± 374 ng/mg of liver | VTG (ng/mg of liver) Male (measured conc. 0.063 μg/L): 1.6 ± 0.4 ng/mg of liver | GSI Female (measured conc. 0.063 μg/L): 10.5% | GSI Male (measured conc. 0.063 μg/L): 1.15% | HSI Female (measured conc. 0.063 μg/L): 3.6% | HSI Male (measured conc. 0.063 μg/L): 1.5% | Length Female (measured conc. 0.063 μg/L): 32.9 mm | Length Male (measured conc. 0.063 μg/L): 33.4 mm | Weight Female (measured conc. 0.063 μg/L): 354 mg | Weight Male (measured conc. 0.063 μg/L): 377 mg | Fertility rate (%) (measured conc. 2.97 μg/L): 84% | Mortality (%) Female (measured conc. 2.97 μg/L): 0% | Mortality (%) Male (measured conc. 2.97 μg/L): 0% | Number of fertilized eggs (measured conc. 2.97 μg/L): 12 | Number of total eggs (measured conc. 2.97 μg/L): 14 ± 3.7 /female/day | SSC Female (measured conc. 2.97 μg/L): 22 ± 14 | SSC Male (measured conc. 2.97 μg/L): 78 ± 16 | VTG (ng/mg of liver) Female (measured conc. 2.97 μg/L): 587 ± 306 ng/mg of liver | VTG (ng/mg of liver) Male (measured conc. 2.97 μg/L): 1.4 ± 0.7 ng/mg of liver | GSI Female (measured conc. 2.97 μg/L): 21.1% | GSI Male (measured conc. 2.97 μg/L): 1.21% | HSI Female (measured conc. 2.97 μg/L): 3.8% | HSI Male (measured conc. 2.97 μg/L): 1.7% | Length Female (measured conc. 2.97 μg/L): 32.8 mm | Length Male (measured conc. 2.97 μg/L): 33.6 mm | Weight Female (measured conc. 2.97 μg/L): 425 mg | Weight Male (measured conc. 2.97 μg/L): 411 mg | effect on fecundity (number of total eggs), in words (within the test concentrations, 21-day exposure): significantly reduced

O=C(c1ccc(OCCN2CCCCC2)cc1)c1c(-c2ccc(O)cc2)sc2cc(O)ccc12 [RAL, Raloxifene hydrochloride]
LOEC for decrease of VTG in females (hepatic VTG, 21-day exposure, measured conc.): 721 µg/L | Fertility rate (%) (measured conc. 63.9 μg/L): 87% | Mortality (%) Female (measured conc. 63.9 μg/L): 0% | Mortality (%) Male (measured conc. 63.9 μg/L): 0% | Number of fertilized eggs (measured conc. 63.9 μg/L): 16 | Number of total eggs (measured conc. 63.9 μg/L): 18 ± 4.2 /female/day | SSC Female (measured conc. 63.9 μg/L): 0 ± 0 | VTG (ng/mg of liver) Male (measured conc. 63.9 μg/L): 19.6 ± 5.7 ng/mg of liver | GSI Female (measured conc. 63.9 μg/L): 9.6% | GSI Male (measured conc. 63.9 μg/L): 1.03% | HSI Female (measured conc. 63.9 μg/L): 3.2% | HSI Male (measured conc. 63.9 μg/L): 1.5% | Length Female (measured conc. 63.9 μg/L): 36.9 mm | Length Male (measured conc. 63.9 μg/L): 37.5 mm | Weight Female (measured conc. 63.9 μg/L): 555 mg | Weight Male (measured conc. 63.9 μg/L): 511 mg | Fertility rate (%) (measured conc. 203 μg/L): 86% | Mortality (%) Female (measured conc. 203 μg/L): 0% | Mortality (%) Male (measured conc. 203 μg/L): 0% | Number of fertilized eggs (measured conc. 203 μg/L): 14 | Number of total eggs (measured conc. 203 μg/L): 16 ± 2.6 /female/day | SSC Female (measured conc. 203 μg/L): 0 ± 0 | SSC Male (measured conc. 203 μg/L): 118 ± 15 | VTG (ng/mg of liver) Female (measured conc. 203 μg/L): 652 ± 82.4 ng/mg of liver | VTG (ng/mg of liver) Male (measured conc. 203 μg/L): 30.2 ± 11.4 ng/mg of liver | GSI Female (measured conc. 203 μg/L): 10.2% | GSI Male (measured conc. 203 μg/L): 0.97% | HSI Female (measured conc. 203 μg/L): 2.9% | HSI Male (measured conc. 203 μg/L): 1.6% | Length Female (measured conc. 203 μg/L): 37.8 mm | Length Male (measured conc. 203 μg/L): 38.4 mm | Weight Female (measured conc. 203 μg/L): 600 mg | Weight Male (measured conc. 203 μg/L): 550 mg | Fertility rate (%) (measured conc. 721 μg/L): 82% | Mortality (%) Female (measured conc. 721 μg/L): 0% | Mortality (%) Male (measured conc. 721 μg/L): 0% | Number of fertilized eggs (measured conc. 721 μg/L): 14 | Number of total eggs (measured conc. 721 μg/L): 17 ± 2.6 /female/day | SSC Female (measured conc. 721 μg/L): 0 ± 0 | VTG (ng/mg of liver) Female (measured conc. 721 μg/L): 368 ± 68.4 ng/mg of liver | VTG (ng/mg of liver) Male (measured conc. 721 μg/L): 24.1 ± 13.7 ng/mg of liver | GSI Female (measured conc. 721 μg/L): 10.5% | GSI Male (measured conc. 721 μg/L): 0.96% | HSI Female (measured conc. 721 μg/L): 3.4% | HSI Male (measured conc. 721 μg/L): 1.5% | Length Female (measured conc. 721 μg/L): 38.8 mm | Length Male (measured conc. 721 μg/L): 39.0 mm | Weight Female (measured conc. 721 μg/L): 638 mg | Weight Male (measured conc. 721 μg/L): 612 mg | Fertility rate (%) (measured conc. 2080 μg/L): 72% | Mortality (%) Female (measured conc. 2080 μg/L): 0% | Mortality (%) Male (measured conc. 2080 μg/L): 0% | Number of fertilized eggs (measured conc. 2080 μg/L): 14 | Number of total eggs (measured conc. 2080 μg/L): 19 ± 2.5 /female/day | SSC Female (measured conc. 2080 μg/L): 0 ± 0 | VTG (ng/mg of liver) Female (measured conc. 2080 μg/L): 305 ± 99.8 ng/mg of liver | VTG (ng/mg of liver) Male (measured conc. 2080 μg/L): 17.2 ± 3.5 ng/mg of liver | GSI Female (measured conc. 2080 μg/L): 11.5% | GSI Male (measured conc. 2080 μg/L): 1.12% | HSI Female (measured conc. 2080 μg/L): 4.7% | HSI Male (measured conc. 2080 μg/L): 1.7% | Length Female (measured conc. 2080 μg/L): 38.8 mm | Length Male (measured conc. 2080 μg/L): 37.1 mm | Weight Female (measured conc. 2080 μg/L): 675 mg | Weight Male (measured conc. 2080 μg/L): 506 mg
